For the test, the target named is T1, human PAH with the R408W mutation (Homo sapiens, UniProt P00439, R408W).
T1 construct: expressed in transfected cells
T1 sequence (P00439 1-452 R408W): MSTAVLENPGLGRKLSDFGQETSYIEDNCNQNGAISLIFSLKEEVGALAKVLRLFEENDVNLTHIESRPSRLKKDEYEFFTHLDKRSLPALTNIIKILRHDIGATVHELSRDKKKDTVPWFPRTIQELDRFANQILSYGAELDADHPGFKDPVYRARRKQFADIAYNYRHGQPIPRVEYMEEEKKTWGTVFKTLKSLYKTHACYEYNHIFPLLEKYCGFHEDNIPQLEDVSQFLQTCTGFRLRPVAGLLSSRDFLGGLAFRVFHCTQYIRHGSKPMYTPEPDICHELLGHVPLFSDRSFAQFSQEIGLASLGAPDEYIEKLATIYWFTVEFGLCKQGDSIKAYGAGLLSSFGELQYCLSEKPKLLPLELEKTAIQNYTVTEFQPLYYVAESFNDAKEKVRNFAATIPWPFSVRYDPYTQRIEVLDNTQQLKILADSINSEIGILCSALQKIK
Description: Cell Based Phenylalanine Flux Assay. The following applies: A375 cells expressing human R408W PAH, 13C-Tyrosine by LC-MS, average where tested multiple times, read-out: AC50.

The structures appear in SMILES notation. Where two headings read alike, the source gives them in different places.

Regarding `O=C(C1CC1)N1CCc2[nH]cnc2[C@@H]1c1nc2ccc(Cl)cc2[nH]1` [Example 959, (R)-(4-(6-chloro-1H-benzo[d]imidazol-2-yl)-6,7-dihydro-1H-imidazo[4,5-c]pyridin-5(4H)-yl)(cyclopropyl)methanone], where the note is “24 hrs compound incubation”, the AC50 (as a rule, the concentration giving half of the maximal activity seen) was greater than 5 µM.

On to `O=C(c1cnn2cccc(F)c12)N1CCc2[nH]cnc2C1c1nc2ccccc2s1` (centres unmarked), for which the AC50 (24 hrs with compound) lay within 1 to 5 µM.

As for `O=C(c1nc2cc(F)ccc2s1)N1CCc2[nH]cnc2[C@@H]1c1nc2ccccc2s1` [Example 1096, (R)-(4-(benzo[d]thiazol-2-yl)-6,7-dihydro-1H-imidazo[4,5-c]pyridin-5(4H)-yl)(5-fluorobenzo[d]thiazol-2-yl)methanone], the half-maximal activity concentration (AC50) (24 hrs compound incubation) was greater than 5 µM.

Regarding `O=C(c1cn(CC(F)F)nc1Cl)N1CCc2[nH]cnc2[C@@H]1c1nc2c(F)cccc2s1` [Example 1982, (R)-(3-chloro-1-(2,2-difluoroethyl)-1H-pyrazol-4-yl)(4-(4-fluorobenzo[d]thiazol-2-yl)-6,7-dihydro-1H-imidazo[4,5-c]pyridin-5(4H)-yl)methanone], the AC50 (24 hrs compound incubation) was 1 to 5 µM.

In the case of `Cn1ncc(C(=O)N2CCc3[nH]cnc3[C@@H]2c2nc3ccccc3s2)c1C(F)F` [Example 1820, (R)-(4-(benzo[d]thiazol-2-yl)-6,7-dihydro-1H-imidazo[4,5-c]pyridin-5(4H)-yl)(5-(difluoromethyl)-1-methyl-1H-pyrazol-4-yl)methanone], the AC50 (24 hrs compound incubation) was greater than 5 µM.

With `Cc1c(C(=O)N2CCc3[nH]cnc3[C@H]2c2nc3c(F)cccc3s2)cnn1C` (single isomer, unassigned), the AC50 (24 hrs with compound) lay in the range of 1 to 5 µM.

Consider `CC(C)(C)CCC(=O)N1CCc2[nH]cnc2C1c1nc2ccc(Cl)cc2[nH]1` (centres unmarked), for which the half-maximal activity concentration (AC50) (24 hrs with compound) is 1 to 5 µM.

As to `O=C(c1oc(C=CC2CC2)nc1C(F)(F)F)N1CCCc2[nH]cnc2C1c1nc2ccccc2s1` (centres unmarked), the concentration at half-maximal activity (AC50) (24 hrs with compound) is greater than 5 µM.

In the case of `O=C(c1ncc(Cl)s1)N1CCc2[nH]cnc2[C@H]1c1nc2ccccc2s1` [Example 1053], the AC50 (24 hrs compound incubation) is 0.5 to 1 µM.

As for `CN(C)CCCc1nnc(C(=O)N2CCc3[nH]cnc3[C@H]2c2nc3ccccc3s2)o1` (single isomer, unassigned), the AC50 (24 hrs with compound) was in the range of 1 to 5 µM.

`O=C(Cc1ccccn1)N1CCc2[nH]cnc2C1c1nc2ccccc2s1` (centres unmarked): the AC50 (24 hrs with compound) was greater than 5 µM.

`Cc1nnc(CCC(=O)N2CCc3[nH]cnc3C2c2nc3cc(F)ccc3s2)s1` (centres unmarked): the concentration at half-maximal activity (AC50) (24 hrs with compound) is greater than 5 µM.

With `Cn1cc(-c2nnc(C(=O)N3CCc4[nH]cnc4[C@@H]3c3nc4c(F)cccc4s3)o2)cn1` [Example 1727, (R)-(4-(4-fluorobenzo[d]thiazol-2-yl)-6,7-dihydro-1H-imidazo[4,5-c]pyridin-5(4H)-yl)(5-(1-methyl-1H-pyrazol-4-yl)-1,3,4-oxadiazol-2-yl)methanone], the half-maximal activity concentration (AC50) (24 hrs compound incubation) fell in the range of 1 to 5 µM.

For the molecule `O=C(CC1CC1)N1CCc2[nH]cnc2[C@H]1c1nc2ccccc2s1` [Example 1071], the AC50 (24 hrs compound incubation) is less than 0.5 µM.

As to `Cc1nc(CN(C)C)oc1C(=O)N1CCc2[nH]cnc2[C@@H]1c1nc2ccccc2s1` [Example 1694, (R)-(4-(benzo[d]thiazol-2-yl)-6,7-dihydro-1H-imidazo[4,5-c]pyridin-5(4H)-yl)(2-((dimethylamino)methyl)-4-methyloxazol-5-yl)methanone], the AC50 (24 hrs compound incubation) is greater than 5 µM.

`O=C(c1cnn2ccccc12)N1CCc2[nH]cnc2[C@@H]1c1nc2cccc(Cl)c2[nH]1` [Example 985, (R)-(4-(7-chloro-1H-benzo[d]imidazol-2-yl)-6,7-dihydro-1H-imidazo[4,5-c]pyridin-5(4H)-yl)(pyrazolo[1,5-a]pyridin-3-yl)methanone]: the AC50 (24 hrs compound incubation) was greater than 5 µM.

For the molecule `O=C(c1ncn2ccccc12)N1CCc2[nH]cnc2[C@@H]1c1nc2cc(F)ccc2s1` [Example 1106, (R)-(4-(5-fluorobenzo[d]thiazol-2-yl)-6,7-dihydro-1H-imidazo[4,5-c]pyridin-5(4H)-yl)(imidazo[1,5-a]pyridin-1-yl)methanone], for the setting “24 hrs compound incubation”, the AC50 was 1 to 5 µM.

Consider `O=C(CCc1nnc(Br)s1)N1CCc2[nH]cnc2[C@H]1c1nc2ccccc2[nH]1` [(S)-1-(4-(1H-benzo[d]imidazol-2-yl)-1,4,6,7-tetrahydro-5H-imidazo[4,5-c]pyridin-5-yl)-3-(5-bromo-1,3,4-thiadiazol-2-yl)propan-1-one], for which the AC50 (24 hrs with compound) lay within 1 to 5 µM.

Turning to `O=C(c1cnc(-c2ccc(F)cn2)s1)N1CCc2[nH]cnc2[C@H]1c1nc2ccccc2s1` [Example 1339], the half-maximal activity concentration (AC50) (24 hrs compound incubation) is less than 0.5 µM.

Consider `CC(O)(c1nc(C(F)(F)F)c(C(=O)N2CCc3[nH]cnc3[C@@H]2c2nc3ccccc3s2)o1)C1CC1` (single isomer, unassigned) [Example 1563], for which the AC50 (24 hrs compound incubation) is less than 0.5 µM.

Take `c1ccc2sc([C@@H]3c4nc[nH]c4CCN3Cc3nccs3)nc2c1` [Example 1139, (S)-2-(5-(thiazol-2-ylmethyl)-4,5,6,7-tetrahydro-1H-imidazo[4,5-c]pyridin-4-yl)benzo[d]thiazole]: where the note is “24 hrs compound incubation”, the AC50 fell in the range of 0.5 to 1 µM.

For the molecule `O=C(c1nncs1)N1CCc2[nH]cnc2C1c1nc2ccc(F)cc2s1` (centres unmarked), the AC50 (24 hrs with compound) was greater than 5 µM.

Regarding `O=C(c1scnc1C(F)(F)F)N1CCc2[nH]cnc2[C@@H]1c1nc2ccccc2s1` [Example 1342, (R)-(4-(benzo[d]thiazol-2-yl)-6,7-dihydro-1H-imidazo[4,5-c]pyridin-5(4H)-yl)(4-(trifluoromethyl)thiazol-5-yl)methanone], the AC50 (24 hrs compound incubation) was less than 0.5 µM.

Turning to `O=C(c1cn[nH]c1)N1CCc2nc[nH]c2C1c1nc2c(F)cccc2s1` (centres unmarked), the AC50 (24 hrs with compound) is greater than 5 µM.

Turning to `C[C@@H]1CN(C(=O)c2nnc(-c3cnn(C)c3)o2)[C@@H](c2nc3ccccc3s2)c2nc[nH]c21` [Example 1749, ((4R,7R)-4-(benzo[d]thiazol-2-yl)-7-methyl-6,7-dihydro-1H-imidazo[4,5-c]pyridin-5(4H)-yl)(5-(1-methyl-1H-pyrazol-4-yl)-1,3,4-oxadiazol-2-yl)methanone], the half-maximal activity concentration (AC50) (24 hrs compound incubation) was 1 to 5 µM.

On to `O=C(c1cnn2ccc(Br)cc12)N1CCc2[nH]cnc2[C@H]1c1nc2ccc(Br)cc2[nH]1` [Example 997, (S)-(4-(6-bromo-1H-benzo[d]imidazol-2-yl)-6,7-dihydro-1H-imidazo[4,5-c]pyridin-5(4H)-yl)(5-bromopyrazolo[1,5-a]pyridin-3-yl)methanone], for which the concentration at half-maximal activity (AC50) (24 hrs compound incubation) is 1 to 5 µM.

Regarding `O=C(CCc1nccs1)N1CCc2nc[nH]c2C1c1nc2cccc(Cl)c2[nH]1` (centres unmarked), the concentration at half-maximal activity (AC50) (24 hrs with compound) is 1 to 5 µM.

Turning to `O=C(c1cc(C(F)F)n[nH]1)N1CCc2[nH]cnc2C1c1nc2c(F)cccc2s1` (centres unmarked), the AC50 (24 hrs with compound) fell in the range of 1 to 5 µM.

Take `Cc1ncc(CC(=O)N2CCc3[nH]cnc3C2c2nc3ccccc3s2)o1` (centres unmarked): for the setting “24 hrs with compound”, the AC50 is greater than 5 µM.

For `CC(C)(O)c1nc(Br)c(C(=O)N2CCc3[nH]cnc3[C@@H]2c2nc3ccccc3s2)o1` [Example 2090, (R)-(4-(benzo[d]thiazol-2-yl)-6,7-dihydro-1H-imidazo[4,5-c]pyridin-5(4H)-yl)(4-bromo-2-(2-hydroxypropan-2-yl)oxazol-5-yl)methanone], the AC50 (24 hrs compound incubation) is 1 to 5 µM.

On to `O=C(c1ncn2ccccc12)N1CCc2[nH]cnc2C1c1nc2ccc(F)cc2s1` (centres unmarked), for which the half-maximal activity concentration (AC50) (24 hrs with compound) lay within 1 to 5 µM.

As to `O=C(c1cnn2cc(CN3CCC(F)(F)C3)ccc12)N1CCc2[nH]cnc2[C@@H]1c1nc2ccccc2s1` [Example 1314, (R)-(4-(benzo[d]thiazol-2-yl)-6,7-dihydro-1H-imidazo[4,5-c]pyridin-5(4H)-yl)(6-((3,3-difluoropyrrolidin-1-yl)methyl)pyrazolo[1,5-a]pyridin-3-yl)methanone], under “24 hrs compound incubation”, the AC50 is greater than 5 µM.

With `Cn1ncnc1C(=O)N1CCc2[nH]cnc2[C@@H]1c1nc2c(C(F)(F)F)cccc2s1` [Example 2102, (R)-(1-methyl-1H-1,2,4-triazol-5-yl)(4-(4-(trifluoromethyl)benzo[d]thiazol-2-yl)-6,7-dihydro-1H-imidazo[4,5-c]pyridin-5(4H)-yl)methanone], the AC50 (24 hrs compound incubation) is 1 to 5 µM.

In the case of `CC(C)(O)c1cc(C(=O)N2CCc3[nH]cnc3C2c2nc3ccccc3s2)no1` (centres unmarked), the concentration at half-maximal activity (AC50) (24 hrs with compound) is greater than 5 µM.

As for `O=C(c1nccs1)N1CCc2[nH]cnc2[C@@H]1c1nc2ccccc2s1` [Example 1008, (R)-(4-(benzo[d]thiazol-2-yl)-6,7-dihydro-1H-imidazo[4,5-c]pyridin-5(4H)-yl)(thiazol-2-yl)methanone], where the note is “24 hrs compound incubation”, the AC50 is greater than 5 µM.

In the case of `COc1ccn2ncc(C(=O)N3CCc4[nH]cnc4[C@H]3c3nc4ccccc4[nH]3)c2c1` [(S)-(4-(1H-benzo[d]imidazol-2-yl)-6,7-dihydro-1H-imidazo[4,5-c]pyridin-5(4H)-yl)(5-methoxypyrazolo[1,5-a]pyridin-3-yl)methanone], where the note is “24 hrs with compound”, the AC50 lay in the range of 1 to 5 µM.

For the molecule `COc1cccc(/C=C/C(=O)N2CCc3[nH]cnc3[C@H]2c2nc3ccccc3s2)c1` [Example 1011], the AC50 (24 hrs compound incubation) lay in the range of 0.5 to 1 µM.

For `O=C(Cc1cscn1)N1CCc2[nH]cnc2[C@H]1c1nc2ccccc2[nH]1` [(S)-1-(4-(1H-benzo[d]imidazol-2-yl)-6,7-dihydro-1H-imidazo[4,5-c]pyridin-5(4H)-yl)-2-(thiazol-4-yl)ethanone], the concentration at half-maximal activity (AC50) (24 hrs with compound) was in the range of 1 to 5 µM.

For `O=C(c1ccon1)N1CCc2[nH]cnc2[C@H]1c1nc2ccc(Cl)cc2[nH]1` [Example 969, (S)-(4-(6-chloro-1H-benzo[d]imidazol-2-yl)-6,7-dihydro-1H-imidazo[4,5-c]pyridin-5(4H)-yl)(isoxazol-3-yl)methanone], the half-maximal activity concentration (AC50) (24 hrs compound incubation) was in the range of 0.5 to 1 µM.

Regarding `Cc1cccc2sc([C@@H]3c4nc[nH]c4CCN3C(=O)c3ncnn3C)nc12` [Example 2015], for the setting “24 hrs compound incubation”, the AC50 was in the range of 0.5 to 1 µM.

Regarding `O=C(c1nccs1)N1CCc2[nH]cnc2C1c1nc2cc(F)ccc2s1` (centres unmarked), under “24 hrs with compound”, the concentration at half-maximal activity (AC50) is greater than 5 µM.

For the origin of these results see patent US20250171438A1 (Agios Pharmaceuticals, Inc., priority 2022, published 2025).
